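Briefly, cells in 96-well plates were exposed to five compound concentrations for 48 h, and endpoints were estimated by linear interpolation. At the GI50, growth is halved. TGI: total growth inhibition.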
Assays:
Test in all cases: NCI-60 cell line screen, 48 h
786-0 renal = system: 786-0 renal
HCC-2998 colon = system: HCC-2998 colon
HOP-62 NSCLC = system: HOP-62 NSCLC
IGROV1 ovarian = system: IGROV1 ovarian
OVCAR-3 ovarian = system: OVCAR-3 ovarian
SK-MEL-28 melanoma = system: SK-MEL-28 melanoma
SNB-19 CNS = system: SNB-19 CNS
T-47D breast = system: T-47D breast
LXFL 529 NSCLC = system: LXFL 529 NSCLC
M19-MEL melanoma = system: M19-MEL melanoma

SMILES | TGI (786-0 renal) | TGI (HCC-2998 colon) | TGI (HOP-62 NSCLC) | TGI (IGROV1 ovarian) | TGI (OVCAR-3 ovarian) | TGI (SK-MEL-28 melanoma) | TGI (SNB-19 CNS) | TGI (T-47D breast) | TGI (LXFL 529 NSCLC) | TGI (M19-MEL melanoma) | GI50 (786-0 renal) | GI50 (HCC-2998 colon) | GI50 (HOP-62 NSCLC) | GI50 (IGROV1 ovarian) | GI50 (OVCAR-3 ovarian) | GI50 (SK-MEL-28 melanoma) | GI50 (SNB-19 CNS) | GI50 (T-47D breast)
COc1ccc(CC2OC3(CCCCC3)CC3CCCCN32)cc1 (stereo not given) | > 100 µM | > 100 µM | > 100 µM | > 100 µM | > 100 µM | > 100 µM | > 100 µM | > 100 µM |  |  |  |  |  |  |  |  |  | 
Cc1cc(NCCCCCCCCNc2cc(C)nc3cc(N(C)C)ccc23)c2ccc(N(C)C)cc2n1 | 21 µM |  | 29 µM |  | 18.4 µM | 4.48 µM | 61.6 µM |  | 16 µM | 10.8 µM |  |  |  |  |  |  |  | 
Cc1ccccc1C1SCc2nc3ccccc3n21 (stereo not given) | > 100 µM | > 100 µM |  | > 100 µM | > 100 µM | > 100 µM | > 100 µM |  |  | > 100 µM |  |  |  |  |  |  |  | 
O=C(C#Cc1ccccc1)N1CCCCC1 | > 100 µM | > 100 µM | > 100 µM | > 100 µM | > 100 µM | > 100 µM | > 100 µM | > 100 µM |  |  |  |  |  |  |  |  |  | 
CC1NCCC(CC(=O)O)C1CC(=O)O (stereo not given) | > 100 µM | > 100 µM | > 100 µM | > 100 µM | > 100 µM | > 100 µM | > 100 µM | > 100 µM |  |  |  |  |  |  |  |  |  | 
O=C(Nc1n[nH]c2cc(-c3ccc(F)cc3)ccc12)C1CC1 | > 25 µM | > 25 µM | > 23.7 µM | > 25 µM | 20 µM | > 25 µM | > 25 µM | > 21.7 µM |  |  | 17.7 µM | 8.27 µM | 8.37 µM | > 21.8 µM | 6.33 µM | 12.3 µM | 12.6 µM | 6.37 µM
COc1cccc(/C=C/C(=O)c2cc3c(N)c(C(=O)Nc4ccccc4)sc3nc2C)c1 | 1.72 µM | 1.66 µM | 2.44 µM | 2 µM | 3.32 µM | 6.45 µM | 5.58 µM | 3.89 µM |  |  | 0.802 µM | 0.901 µM | 1.09 µM | 0.954 µM | 1.18 µM | 1.72 µM | 1.52 µM | 1.24 µM
O=C(Nc1c(Cl)cccc1Cl)Oc1cccc2cccnc12 | > 100 µM | 24.6 µM | 21 µM | > 100 µM | > 100 µM | 75.2 µM | > 100 µM | 14.5 µM |  |  | 7.4 µM | 5.82 µM | 5.63 µM | 3.68 µM | 3.64 µM | 7.28 µM | 5.74 µM | 3.29 µM
NS(=O)(=O)c1ccc(NC(=O)Nc2cccc3ccccc23)cc1 | 38 µM | > 100 µM | > 100 µM | > 100 µM | > 100 µM | > 100 µM | 44.8 µM | > 100 µM |  |  |  |  |  |  |  |  |  | 
NC1=NN(c2ccccc2)C(=O)C1/C(=N\NC(=O)c1cc2ccccc2cc1O)C(=O)Nc1ccc(Cl)c(Cl)c1 (stereo not given) | > 100 µM | > 100 µM | > 100 µM | > 100 µM | 54.8 µM | > 100 µM | > 100 µM |  | > 100 µM |  |  |  |  |  |  |  |  | 
c1ccc(OCC[P+](c2ccccc2)(c2ccccc2)c2ccccc2)cc1 | 20.8 µM | 12.9 µM | 11.1 µM | 11.8 µM | 7.69 µM | 9.81 µM | 15.1 µM | 2.4 µM |  |  | 5.15 µM | 0.702 µM | 1.41 µM | 0.905 µM | 1.11 µM | 1.24 µM | 1.39 µM | 0.265 µM
OCC1OC(N2CCN(C3OC(CO)C(O)C(O)C3O)CC2)C(O)C(O)C1O (stereo not given) | > 100 µM | > 100 µM | > 100 µM | > 100 µM | > 100 µM | > 100 µM | > 100 µM | > 100 µM |  |  |  |  |  |  |  |  |  | 
Cc1ccc2c(c1)n([O-])c(C(F)(F)F)c(C(=O)c1ccco1)[n+]2=O | 6.59 µM | 1.67 µM | 3.85 µM | 9 µM | 1.75 µM | 23.6 µM | 6.82 µM | 4.18 µM |  |  | 1.22 µM | 0.716 µM | 0.996 µM | 0.205 µM | 0.573 µM | 4.16 µM | 1.47 µM | 0.472 µM
Nc1ncnc2c1ncn2Cc1ccc(CCl)cc1 | 73.6 µM | 29 µM | > 100 µM | 66.5 µM | 31.7 µM | > 100 µM | 37.8 µM | 27.4 µM |  |  | 27.5 µM | 14.2 µM | 34.5 µM | 25.8 µM | 14.3 µM | 21.7 µM | 16 µM | 8 µM
O=C(Nc1ccn(C2CCC(COC(c3ccccc3)(c3ccccc3)c3ccccc3)O2)c(=O)n1)c1ccccc1 (stereo not given) | 6.41 µM | 29.2 µM | 16.3 µM | 13.4 µM | 6.47 µM | 16.9 µM | 14.8 µM | 27.9 µM |  |  |  |  |  |  |  |  |  | 
O=C(O)[C@@H](Cc1ccccc1)NS(=O)(=O)c1ccc(-c2ccccc2)cc1 | > 100 µM | > 100 µM | > 100 µM | > 100 µM | > 100 µM | > 100 µM | > 100 µM | > 100 µM |  |  | > 100 µM | > 100 µM | > 100 µM | > 100 µM | > 100 µM | > 100 µM | > 100 µM | > 100 µM
O=C(COc1ccc(Cl)cc1Cl)NNc1ccc([N+](=O)[O-])cc1 | 61.2 µM | > 100 µM | 38.6 µM | > 100 µM | > 100 µM | > 100 µM | 95.6 µM | > 100 µM |  |  | 25.6 µM | > 100 µM | 19.7 µM | 36 µM | > 100 µM | 39.1 µM | 25 µM | 43.3 µM
Nc1cc2c3ccccc3ccc2c2ccccc12 | > 100 µM | > 100 µM | > 100 µM | > 100 µM | > 100 µM | > 100 µM | > 100 µM | > 100 µM |  |  | > 100 µM | > 100 µM | 30.6 µM | > 100 µM | > 67 µM | > 100 µM | > 100 µM | > 38.1 µM
COc1ccc(C2CC(=O)Nc3c2c(C)nn3-c2nc3ccccc3[nH]2)cc1OC (stereo not given) | 24.8 µM | 41.2 µM | 24.4 µM | > 93.3 µM | 14 µM | > 100 µM | > 100 µM | 50.1 µM |  |  | 5.2 µM | 10.9 µM | 4.32 µM | 4.67 µM | 3.99 µM | 4.9 µM | 8.64 µM | 4.49 µM

From PubChem BioAssay (NCI)
